Experiment [1] deals with T1, R878K mutated mAPA (Mus musculus, UniProt P16406, R878K).
T1 construct: made in house; host or cells: stably transfected CHO-K1 cells
T1 sequence (P16406 1-945 R878K): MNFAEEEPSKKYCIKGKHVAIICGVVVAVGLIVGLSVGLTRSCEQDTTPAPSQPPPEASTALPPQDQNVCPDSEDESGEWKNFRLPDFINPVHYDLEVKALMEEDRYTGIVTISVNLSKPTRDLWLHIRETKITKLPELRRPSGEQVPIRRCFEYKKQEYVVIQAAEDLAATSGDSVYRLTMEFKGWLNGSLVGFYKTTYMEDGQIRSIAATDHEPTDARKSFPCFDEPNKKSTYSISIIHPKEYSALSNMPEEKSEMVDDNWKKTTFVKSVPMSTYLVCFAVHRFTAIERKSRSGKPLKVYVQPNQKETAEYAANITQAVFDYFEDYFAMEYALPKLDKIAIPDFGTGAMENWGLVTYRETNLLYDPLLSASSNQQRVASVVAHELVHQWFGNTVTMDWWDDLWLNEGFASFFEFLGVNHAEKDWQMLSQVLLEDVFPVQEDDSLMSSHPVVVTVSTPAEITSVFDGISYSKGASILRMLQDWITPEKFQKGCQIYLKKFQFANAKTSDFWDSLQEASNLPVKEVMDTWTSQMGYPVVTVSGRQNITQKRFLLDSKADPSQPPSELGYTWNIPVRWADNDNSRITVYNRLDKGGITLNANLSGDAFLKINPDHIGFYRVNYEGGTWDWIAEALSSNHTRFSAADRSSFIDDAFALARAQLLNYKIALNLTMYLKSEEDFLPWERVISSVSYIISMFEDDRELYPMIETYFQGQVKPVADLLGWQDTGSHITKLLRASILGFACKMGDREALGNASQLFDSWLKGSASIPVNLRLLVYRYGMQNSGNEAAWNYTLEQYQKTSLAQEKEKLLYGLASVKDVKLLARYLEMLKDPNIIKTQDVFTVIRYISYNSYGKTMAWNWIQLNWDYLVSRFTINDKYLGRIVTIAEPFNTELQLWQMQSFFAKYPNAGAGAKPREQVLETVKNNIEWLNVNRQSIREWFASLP
The experiment can be described thus: Kinetic parameters of substrate hydrolysis by R878K His-mAPA. In kind it is biochemical. Here is the method: (§1) Enzyme assays were carried out for wild-type and mutated His-mAPAs in 50 mM Tris-HCl buffer, pH 7.4, with or without 4 mM CaCl2, by monitoring the rate of hydrolysis of GluNA, as previously described. The sensitivity to Ca^2+ of purified wild-type and mutated His-mAPA was determinated by incubating 0.5 mM GluNA with 0 to 4 mM CaCl2 in a final volume of 100 μl of 50 mM Tris-HCl buffer, pH 7.4. All the assays were performed in black 96-well plates (solid black 96-well flat-bottomed non-treated plates with no lid; Corning Costar). All of the enzymatic studies were performed such that substrate hydrolysis rates were maintained below 10% (initial rate conditions). The kinetic curves were monitored by following the increase in fluorescence at 460 nm (lex = 330 nm), induced by the release of the β-naphthylamide fluorogenic part of the substrate by APA. Fluorescence signals were monitored by counting photons with a spectrophotometer (Fusion universal microplate analyser; Packard) equipped with a temperature control device and a plate shaker. The kinetic parameters (Km and kcat) were determined from Michaelis-Menten plots, using GraphPad Prism 4 software (GraphPad) with a final concentration of substrate (GluNA) from 0.005 to 5 mM with or without 4 mM Ca^2+. For evaluation of the substrate specificity of APA with or without 4 mM Ca^2+, the rate of hydrolysis of […] additional substrates, α-L-aspartate-β-naphthylamide (AspNA), α-L-alanine-β-naphthylamide (AlaNA) and basic α-L-lysine-β-naphthylamide (LysNA), was determined under the same experimental conditions as described for GluNA. The sensitivity of wild-type and mutated His-mAPAs to inhibition by [(3S)-3-amino-4-sulfanyl-butane-1-sulfonic acid] (EC33), glutamate-thiol (GluSH), glutamate-phosphonic-acid (GluPO3H2), methionine-thiol (MetSH) and lysine-thiol (LysSH) was determined by establishing dose-dependent inhibition curves for a final GluNA concentration of 0.5 mM in the presence or absence of 4 mM CaCl2. These compounds being linear competitive inhibitors, their Ki were calculated from the formula Ki = IC50/ (1+ [GluNA]/Km).

For another experiment, the target named is T2, R878A mutated mAPA (Mus musculus, UniProt P16406, R878A).
T2 construct: made in house; host or cells: stably transfected CHO-K1 cells
T2 sequence (P16406 1-945 R878A): T1 sequence (P16406 1-945 R878K) with K878A
The experiment can be described thus: Inhibition of GluNA hydrolysis by purified recombinant R878A His-mAPA. The following applies: R878A mAPA; for Ki: 0.5 mM GluNA, read-out: Ki. The class given is biochemical. Here is the method:
as §1

The target in experiment [2] is T1, R878K mutated mAPA. The experiment can be described thus: Inhibition of GluNA hydrolysis by purified recombinant R878K His-mAPA. In kind it is biochemical. The following applies: R878K mAPA; for Ki: 0.5 mM GluNA, read-out: Ki. Here is the method: as §1
The next experiment relates to APN. Further details: method as in PMID 7915326. The following applies: cited from earlier work.

Numbering of substitutions follows the chain as printed. Like-named read-outs stand apart in the source and are kept apart here.

`NCCCC[C@H](N)C(=O)Nc1ccc2ccccc2c1` [HLysβNA, α-L-lysine-β-naphthylamide]: on R878K mutated mAPA [1] (4 mM Ca2+), the Michaelis-Menten constant (Km) is 229 ± 16.2 µM and the catalytic constant (kcat) was 24.4 ± 0.5^n.s s-1. In addition, at R878K mutated mAPA [1] (no Ca2+), the Michaelis-Menten constant (Km) was found to be 336 ± 54.3 µM and the turnover number (kcat) amounted to 9.0 ± 0.5 s⁻¹.

Take `N[C@@H](CC(=O)O)C(=O)Nc1ccc2ccccc2c1` [HAspβNA, α-L-aspartate-β-naphthylamide]: at R878K mutated mAPA [1] (4 mM Ca2+), the Km is 202 ± 5.7 µM and the catalytic constant (kcat) amounted to 42.2 ± 1.1 s⁻¹. Further, at R878K mutated mAPA [1] (no Ca2+), the Km stood at 3150 ± 328 µM and the kcat amounted to 0.2 ± 0.01 s⁻¹.

With `NCCCC[C@H](N)CS` [LysSH, (2S)-2,6-diaminohexane-1-thiol], the Ki on R878A mutated mAPA (4 mM Ca2+) is 7.51 ± 0.66 µM; at R878A mutated mAPA (absence of calcium) it was 0.118 ± 0.013 µM; on R878K mutated mAPA [2] (4 mM Ca2+), 13.9 ± 0.39 µM; on R878K mutated mAPA [2] (absence of calcium) it was 0.378 ± 0.02 µM.

On to `CSCC[C@H](N)CS` [MetSH], for which the inhibition constant (Ki) on R878A mutated mAPA (4 mM Ca2+) came out at 3.22 ± 0.2 µM; at R878A mutated mAPA (absence of calcium) it was 0.475 ± 0.14 µM; at R878K mutated mAPA [2] (4 mM Ca2+), 5.14 ± 0.56 µM; at R878K mutated mAPA [2] (absence of calcium), 1.25 ± 0.057 µM.

For the molecule `C[C@H](N)C(=O)Nc1ccc2ccccc2c1` [HAlaβNA, α-L-alanine-β-naphthylamide], on R878K mutated mAPA [1] (4 mM Ca2+), the Km amounted to 821 ± 142 µM and the turnover number (kcat) is 26.2 ± 1.5 s⁻¹. In addition, on R878K mutated mAPA [1] (no Ca2+), the Michaelis-Menten constant (Km) stood at 670 ± 25.2 µM and the turnover number (kcat) was 27.1 ± 4.8 s⁻¹.

As to `N[C@H](CS)CCS(=O)(=O)O` [EC33, (3S)‐3‐amino‐4‐sulfanylbutane‐1‐sulfonic acid], the figures for the Ki on R878A mutated mAPA (4 mM Ca2+) and at R878K mutated mAPA [2] (4 mM Ca2+) were 2 ± 0.2 µM and 1.52 ± 0.126 µM, respectively. Further, the “fold less active on APN than on APA” value in the experiment with APN is given as 100 fold.

Take `N[C@H](CS)CCC(=O)O` [GluSH, (4S)-4-amino-5-sulfanylpentanoic acid]: the “enhancement of inhibitory potency by 4 mM Ca2+ compared to Ki in the absence of Ca2+” value at R878A mutated mAPA turned out to be 1.7 fold; on R878K mutated mAPA [2], 6.6 fold. Moreover, the inhibition constant (Ki) on R878A mutated mAPA (4 mM Ca2+) was 0.983 ± 0.16 µM; on R878A mutated mAPA (absence of calcium), 1.72 ± 0.19 µM; on R878K mutated mAPA [2] (4 mM Ca2+) it was 2.1 ± 0.44 µM; at R878K mutated mAPA [2] (absence of calcium), above 10 µM.

In the case of `N[C@@H](CCC(=O)O)C(=O)Nc1ccc2ccccc2c1` [HGluβNA, α-L-glutamyl-β-naphthylamide], at R878K mutated mAPA [1] (4 mM Ca2+), the Michaelis constant (Km) turned out to be 269 ± 5.1 µM and the kcat was determined as 135 ± 1.3 s⁻¹. On R878K mutated mAPA [1] (no Ca2+), the Km stood at 12500 ± 1450 µM and the kcat turned out to be 3.12 ± 0.4 s⁻¹. The “decrease in the affinity of the enzyme for the substrate compared to wild-type (factor)” value at R878K mutated mAPA [1] (presence of Ca2+) came to 6.

Values taken from publication PMC5587309, “Involvement of arginine 878 together with Ca^2+ in mouse aminopeptidase A substrate specificity for N-terminal acidic amino-acid residues” (PLoS ONE, 2017).
